Test results published in the CheMixHub viscosity set.

Assay: xn = mol fraction of the nth substance listed

CCOCCO + CS(C)=O
viscosity [mPa·s], 101.33 kPa
Conditions | 298.15 K | 303.15 K | 308.15 K | 313.15 K | 318.15 K
x1 = 0.0436 | 2 | 1.8 | 1.66 | 1.52 | 1.38
x1 = 0.0879 | 2 | 1.8 | 1.66 | 1.53 | 1.38
x1 = 0.1327 | 2 | 1.81 | 1.67 | 1.53 | 1.38
x1 = 0.1781 | 2.01 | 1.81 | 1.67 | 1.53 | 1.38
x1 = 0.2242 | 2.01 | 1.82 | 1.68 | 1.54 | 1.38
x1 = 0.2709 | 2.02 | 1.82 | 1.68 | 1.54 | 1.38
x1 = 0.3183 | 2.02 | 1.82 | 1.68 | 1.54 | 1.38
x1 = 0.3663 | 2.03 | 1.83 | 1.69 | 1.54 | 1.38
x1 = 0.415 | 2.02 | 1.83 | 1.68 | 1.54 | 1.38
x1 = 0.4644 | 2.02 | 1.82 | 1.68 | 1.54 | 1.38
x1 = 0.5145 | 2.02 | 1.82 | 1.68 | 1.54 | 1.37
x1 = 0.5653 | 2.01 | 1.81 | 1.67 | 1.53 | 1.37
x1 = 0.6169 | 2.01 | 1.81 | 1.67 | 1.52 | 1.36
x1 = 0.6692 | 1.99 | 1.79 | 1.65 | 1.51 | 1.35
x1 = 0.7223 | 1.98 | 1.78 | 1.64 | 1.49 | 1.33
x1 = 0.7762 | 1.96 | 1.75 | 1.62 | 1.48 | 1.31
x1 = 0.8309 | 1.94 | 1.73 | 1.59 | 1.45 | 1.29
x1 = 0.8864 | 1.92 | 1.71 | 1.56 | 1.43 | 1.27
x1 = 0.9428 | 1.88 | 1.67 | 1.53 | 1.39 | 1.24

CNCCO + O
viscosity [mPa·s]
Conditions | 293.15 K | 298.15 K | 303.15 K | 308.15 K | 313.15 K | 318.15 K | 323.15 K
100 kPa, x2 = 0.51 | 26.3 | – | – | – | 9.61 | – | 6.36
101 kPa, x1 = 0.0844 | – | – | 2.541 | 2.165 | 1.868 | 1.625 | –
101 kPa, x1 = 0.1894 | – | – | 6.505 | 5.276 | 4.347 | 3.612 | –
101 kPa, x1 = 0.3001 | – | – | 11.33 | 8.968 | 7.206 | 5.87 | –
101 kPa, x1 = 0.4014 | – | – | 14.46 | 11.33 | 9.042 | 7.311 | –
101 kPa, x1 = 0.448 | – | – | 15.21 | 11.93 | 9.52 | – | –
101 kPa, x1 = 0.5016 | – | – | 15.62 | 12.24 | 9.767 | – | –
101 kPa, x1 = 0.5474 | – | – | 15.45 | 12.14 | 9.666 | – | –
101 kPa, x1 = 0.6004 | – | – | 15.17 | 11.95 | 9.57 | – | –
101 kPa, x1 = 0.7021 | – | – | 13.66 | 10.84 | 8.761 | – | –
101 kPa, x1 = 0.7975 | – | – | 11.89 | 9.564 | 7.81 | – | –
101 kPa, x1 = 0.9048 | – | – | 10.09 | 8.218 | 6.771 | – | –
101.3 kPa, x1 = 0.0125 | 1.234 | 1.086 | 0.963 | 0.863 | 0.778 | 0.705 | 0.644
101.3 kPa, x1 = 0.138 | 6.87 | 5.53 | 4.42 | 3.65 | 3.07 | 2.61 | 2.25
101.3 kPa, x1 = 0.265 | 16.7 | 12.81 | – | 7.99 | 6.46 | 5.31 | 4.41
101.3 kPa, x2 = 0.3167 | 22.4 | 17.24 | 13.51 | 10.76 | 8.699 | 7.129 | 5.914
101.3 kPa, x2 = 0.5104 | 27.48 | 20.95 | 16.28 | 12.83 | 10.25 | 8.308 | 6.794
101.3 kPa, x2 = 0.641 | 22.98 | 17.41 | 13.47 | 10.6 | 8.484 | 6.887 | 5.67
101.3 kPa, x2 = 0.7356 | 17.61 | – | 10.58 | 8.433 | 6.828 | 5.626 | 4.688
101.3 kPa, x2 = 0.8064 | 10.8 | 8.438 | 6.716 | 5.451 | 4.498 | 3.765 | 3.181
101.3 kPa, x2 = 0.8623 | 6.917 | 5.549 | 4.52 | 3.745 | 3.143 | 2.663 | 2.282
101.3 kPa, x2 = 0.9067 | 4.02 | – | 2.789 | 2.363 | 2.02 | 1.75 | 1.536
101.3 kPa, x2 = 0.9434 | 2.462 | 2.089 | 1.794 | 1.557 | 1.364 | 1.206 | 1.076
101.3 kPa, x2 = 0.974 | 1.532 | 1.334 | 1.172 | 1.041 | 0.929 | 0.838 | 0.759
101.33 kPa, x1 = 0.01 | – | 1.089 | 0.97 | – | 0.785 | – | –
101.33 kPa, x1 = 0.0217 | – | 1.366 | 1.198 | – | 0.949 | – | –
101.33 kPa, x1 = 0.0333 | – | 1.692 | 1.469 | – | 1.133 | – | –
101.33 kPa, x1 = 0.0467 | – | 2.146 | 1.836 | – | 1.384 | – | –
101.33 kPa, x1 = 0.0622 | – | 2.759 | 2.315 | – | – | – | –
101.33 kPa, x1 = 0.0772 | – | 3.465 | 2.815 | – | 2.049 | – | –
101.33 kPa, x1 = 0.1167 | – | 5.735 | 4.525 | – | 3.075 | – | –
101.33 kPa, x1 = 0.1656 | – | 9.455 | 7.046 | – | 4.573 | – | –
101.33 kPa, x1 = 0.2308 | – | 14.59 | 10.71 | – | 6.551 | – | –
101.33 kPa, x1 = 0.3169 | – | 19.66 | 14.66 | – | 8.805 | – | –
101.33 kPa, x1 = 0.3893 | – | 21.8 | 16.85 | – | 10.24 | – | –
101.33 kPa, x1 = 0.449 | – | 22.25 | 17.79 | – | 10.9 | – | –
101.33 kPa, x1 = 0.5356 | – | 22.31 | 17.99 | – | 11.21 | – | –
101.33 kPa, x1 = 0.6845 | – | 21.05 | 16.24 | – | 10.16 | – | –
101.33 kPa, x1 = 0.8213 | – | 17.45 | 13.21 | – | 8.401 | – | –
101.33 kPa, x1 = 0.9202 | – | 13.96 | 11 | – | 7.227 | – | –
101.33 kPa, x1 = 0.956 | – | 12.96 | 10.26 | – | 6.823 | – | –

NCCCC[C@H](N)C(=O)[O-].[K+] + O
viscosity [mPa·s]
Conditions | 293.15 K | 298.15 K | 303.15 K | 308.15 K | 313.15 K | 318.15 K | 323.15 K
100 kPa, x1 = 0.01 | – | 1.138 | – | – | – | – | –
100 kPa, x1 = 0.02 | – | 1.642 | – | – | – | – | –
101.3 kPa, x1 = 0.00479 | 1.183 | 1.051 | 0.9411 | 0.847 | 0.7675 | 0.7007 | 0.6435
101.3 kPa, x1 = 0.00923 | 1.393 | 1.226 | 1.092 | 0.9834 | 0.8868 | 0.8069 | 0.7376
101.3 kPa, x1 = 0.015 | 1.599 | 1.408 | 1.251 | 1.12 | 1.01 | 0.916 | 0.8358
101.3 kPa, x1 = 0.01985 | 1.92 | 1.683 | 1.49 | 1.328 | 1.194 | 1.077 | 0.9784
101.3 kPa, x1 = 0.03254 | 2.783 | 2.408 | 2.108 | 1.861 | 1.655 | 1.483 | 1.337
101.3 kPa, x1 = 0.0375 | 2.961 | 2.59 | 2.233 | 1.989 | 1.744 | 1.577 | 1.404
101.3 kPa, x1 = 0.0395 | – | – | 1.868 | – | 1.448 | – | 1.128
101.3 kPa, x1 = 0.04425 | 4.174 | – | 3.071 | – | 2.351 | 2.094 | 1.872
101.3 kPa, x1 = 0.0501 | 4.177 | 3.576 | 3.074 | 2.687 | 2.353 | 2.092 | 1.861
101.3 kPa, x1 = 0.0595 | – | – | 3.237 | – | 2.45 | – | 1.863
101.3 kPa, x1 = 0.06157 | 6.645 | 5.544 | 4.71 | 4.049 | 3.517 | 3.081 | 2.722
101.3 kPa, x1 = 0.0617 | 5.683 | 4.806 | 4.086 | 3.537 | 3.072 | 2.71 | 2.394
101.3 kPa, x1 = 0.0705 | 7.066 | 5.922 | 4.999 | 4.299 | 3.709 | 3.251 | 2.858
101.3 kPa, x1 = 0.0741 | 7.638 | 6.379 | 5.359 | 4.594 | 3.949 | 3.453 | 3.025
101.3 kPa, x1 = 0.0855 | – | – | 4.606 | – | 3.452 | – | 2.598
